Measurements: patent publication US20240261318A1, “ANTI-AGING COSMETIC COMPOSITION” (LG HOUSEHOLD & HEALTH CARE LTD., priority 2021, published 2024)

Test system: FGF10
Test: Analysis of mRNA expression of FGF10 in human dermal fibroblasts (qPCR)
Format: cell-based
Conditions: for Expression level (% relative to control): FGF10 mRNA, human dermal fibroblasts, 48 hours; for mRNA expression of FGF 10: human fibroblasts treated with the single substance, result in words
Experimental: Human dermal fibroblasts (neonatal) were purchased from Lonza and then cultured in a carbon dioxide incubator at 37° C. and 5% carbon dioxide. In this case, as a medium for culturing, a medium containing Dulbecco's modified eagle medium (DMEM; Thermo Fisher Scientific) with 10% fetal bovine serum (FBS) and 1% antibiotics (penicillin/streptomycin) was used. Afterward, 20000 cells were seeded in a 6-well plate, and 24 hours later, the DMEM culture medium was treated with each sample having compositions shown in Tables 1 and 2 and cultured again for another 48 hours. As a control, a DMEM culture medium not including any other components was used.

Row | SMILES | Expression level (% relative to control) (Table 1, sample at 8 ppm) [%] | Expression level (% relative to control) (Table 2, sample at 0.2 ppm) [%] | mRNA expression of FGF 10 | Expression level (% relative to control) (Table 1, sample at 0.2 ppm) [%] | Expression level (% relative to control) (Table 2, sample at 8 ppm) [%]
1 | Nc1ncnc2c1ncn2[C@@H]1O[C@H](CO)C[C@H]1O [Cordycepin, cordycepin] | 148 | 102 | promoted | – | –
2 | C=C1CC[C@@H]2[C@](C)(CO)[C@H](O)CC[C@@]2(C)[C@@H]1C/C=C1/C(=O)OC[C@H]1O [Andrographolide, andrographolide] | – | – | promoted | 141 | –
3 | Nc1ncnc2c1ncn2[C@@H]1O[C@H](CO)[C@@H](O)[C@H]1O [Adenosine, reference compound] | 88 | – | no effect on increasing the expression of FGF 10 | – | 88
4 | O=c1c(O)c(-c2ccc(O)c(O)c2)oc2cc(O)cc(O)c12 [Quercetin, quercetin] | – | 63 | promoted | – | –
